Test results from patent US20240059671A1, “TYROSINE KINASE 2 (TYK2) DEGRADATION COMPOUNDS AND METHODS OF USE” (CULLGEN (SHANGHAI), INC., priority 2020, published 2024).

Molecular target: TYK2 (Homo sapiens, UniProt P29597)
Assay: TYK2 protein degradation in MOLT-4 cells by immunoblotting
Assay type: cell-based
Parameters: endogenous in cells; host or cells: MOLT-4
Settings: MOLT-4 cells, 24 hours
How it was run: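 MOLT-4 cells were exposed to compounds at 0.5 and 5 μM for 24 h, then lysed in RIPA buffer with protease and phosphatase inhibitors. TYK2 was detected by SDS-PAGE immunoblot with chemiluminescence, and band densitometry gave percent degradation.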

TYK2, sequence (P29597 whole entry): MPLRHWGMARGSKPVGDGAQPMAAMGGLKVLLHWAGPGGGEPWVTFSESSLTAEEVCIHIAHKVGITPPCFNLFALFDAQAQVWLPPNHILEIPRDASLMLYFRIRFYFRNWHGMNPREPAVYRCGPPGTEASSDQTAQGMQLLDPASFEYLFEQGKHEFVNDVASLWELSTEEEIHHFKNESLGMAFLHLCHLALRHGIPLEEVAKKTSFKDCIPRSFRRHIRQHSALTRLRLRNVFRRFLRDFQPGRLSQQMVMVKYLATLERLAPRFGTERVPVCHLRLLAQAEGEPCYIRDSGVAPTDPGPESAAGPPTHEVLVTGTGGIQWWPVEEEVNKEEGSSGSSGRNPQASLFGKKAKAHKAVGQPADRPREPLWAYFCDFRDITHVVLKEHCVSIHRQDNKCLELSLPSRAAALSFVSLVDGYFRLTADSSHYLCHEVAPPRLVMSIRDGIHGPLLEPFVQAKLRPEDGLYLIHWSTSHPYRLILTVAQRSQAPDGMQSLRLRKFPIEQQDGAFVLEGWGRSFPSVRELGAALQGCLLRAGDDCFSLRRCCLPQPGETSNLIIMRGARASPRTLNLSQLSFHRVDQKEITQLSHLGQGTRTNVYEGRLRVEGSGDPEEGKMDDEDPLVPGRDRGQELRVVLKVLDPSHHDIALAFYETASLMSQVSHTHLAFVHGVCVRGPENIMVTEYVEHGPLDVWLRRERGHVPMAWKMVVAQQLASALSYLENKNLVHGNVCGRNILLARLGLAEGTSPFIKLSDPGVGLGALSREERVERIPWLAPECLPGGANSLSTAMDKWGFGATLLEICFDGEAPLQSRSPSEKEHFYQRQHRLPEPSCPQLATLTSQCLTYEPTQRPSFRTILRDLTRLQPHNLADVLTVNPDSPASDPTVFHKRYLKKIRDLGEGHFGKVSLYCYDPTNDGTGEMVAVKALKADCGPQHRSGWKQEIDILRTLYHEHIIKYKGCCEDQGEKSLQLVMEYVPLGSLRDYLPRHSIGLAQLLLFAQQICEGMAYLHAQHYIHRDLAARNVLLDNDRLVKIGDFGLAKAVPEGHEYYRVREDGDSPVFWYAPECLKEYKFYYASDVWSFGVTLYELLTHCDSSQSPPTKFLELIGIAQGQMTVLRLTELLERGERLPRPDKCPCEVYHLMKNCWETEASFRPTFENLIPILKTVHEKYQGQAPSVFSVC

| SMILES | TYK2 Degradation (MOLT-4, 0.5 μM) | TYK2 Degradation (MOLT-4, 5 μM) |
| --- | --- | --- |
| CNC(=O)c1nnc(NC(=O)C2CC2)cc1Nc1cccc(-c2ncn(CCNC(=O)CCCCCCCCCC(=O)N[C@H](C(=O)N3C[C@H](O)C[C@H]3C(=O)NCc3ccc(-c4scnc4C)cc3)C(C)(C)C)n2)c1OC [CPD-082, N^1-(2-(3-(3-((6-(Cyclopropanecarboxamido)-3-(methylcarbamoyl)pyridazin-4-yl)amino)-2-methoxyphenyl)-1H-1,2,4-triazol-1-yl)ethyl)-N^11-((S)-1-((2S,4R)-4-hydroxy-2-((4-(4-methylthiazol-5-yl)benzyl)carbamoyl)pyrrolidin-1-yl)-3,3-dimethyl-1-oxobutan-2-yl)undecanediamide] | C (C: ≤20% TYK2 degradation) | C (C: ≤20% TYK2 degradation) |
| CNC(=O)c1nnc(NC(=O)CNC(=O)CCCCCCC(=O)N[C@H](C(=O)N2C[C@H](O)C[C@H]2C(=O)N[C@@H](C)c2ccc(-c3scnc3C)cc2)C(C)(C)C)cc1Nc1cccc(-c2ncn(C)n2)c1OC [CPD-083, N^1-((S)-1-((2S,4R)-4-Hydroxy-2-(((S)-1-(4-(4-methylthiazol-5-yl)phenyl)ethyl)carbamoyl)pyrrolidin-1-yl)-3,3-dimethyl-1-oxobutan-2-yl)-N^8-(2-((5-((2-methoxy-3-(1-methyl-1H-1,2,4-triazol-3-yl)phenyl)amino)-6-(methylcarbamoyl)pyridazin-3-yl)amino)-2-oxoethyl)octanediamide] | B (B: <60% TYK2 degradation, and >20% TYK2 degradation) | A (A: ≥60% TYK2 degradation) |
| CNC(=O)c1nnc(NC(=O)CNC(=O)CCCCCCCC(=O)N[C@H](C(=O)N2C[C@H](O)C[C@H]2C(=O)N[C@@H](C)c2ccc(-c3scnc3C)cc2)C(C)(C)C)cc1Nc1cccc(-c2ncn(C)n2)c1OC [CPD-084, N1-((S)-1-((2S,4R)-4-hydroxy-2-(((S)-1-(4-(4-methylthiazol-5-yl)phenyl)ethyl)carbamoyl)pyrrolidin-1-yl)-3,3-dimethyl-1-oxobutan-2-yl)-N9-(2-((5-((2-methoxy-3-(1-methyl-1H-1,2,4-triazol-3-yl)phenyl)amino)-6-(methylcarbamoyl)pyridazin-3-yl)amino)-2-oxoethyl)nonanediamide] | A (A: ≥60% TYK2 degradation) | A (A: ≥60% TYK2 degradation) |
| CNC(=O)c1nnc(NC(=O)CNC(=O)CNC(=O)C[C@H](NC(=O)[C@@H]2C[C@@H](O)CN2C(=O)[C@@H](NC(=O)C2(F)CC2)C(C)(C)C)c2ccc(-c3scnc3C)cc2)cc1Nc1cccc(-c2ncn(C)n2)c1OC [CPD-086, 6-(2-(2-((S)-3-((2S,4R)-1-((S)-2-(1-Fluorocyclopropane-1-carboxamido)-3,3-dimethylbutanoyl)-4-hydroxypyrrolidine-2-carboxamido)-3-(4-(4-methylthiazol-5-yl)phenyl)propanamido)acetamido)acetamido)-4-((2-methoxy-3-(1-methyl-1H-1,2,4-triazol-3-yl)phenyl)amino)-N-methylpyridazine-3-carboxamide] | C (C: ≤20% TYK2 degradation) | – |
| CNC(=O)c1nnc(NC(=O)CNC(=O)CCNC(=O)C[C@H](NC(=O)[C@@H]2C[C@@H](O)CN2C(=O)[C@@H](NC(=O)C2(F)CC2)C(C)(C)C)c2ccc(-c3scnc3C)cc2)cc1Nc1cccc(-c2ncn(C)n2)c1OC [CPD-087, 6-(2-(3-((S)-3-((2S,4R)-1-((S)-2-(1-Fluorocyclopropane-1-carboxamido)-3,3-dimethylbutanoyl)-4-hydroxypyrrolidine-2-carboxamido)-3-(4-(4-methylthiazol-5-yl)phenyl)propanamido)propanamido)acetamido)-4-((2-methoxy-3-(1-methyl-1H-1,2,4-triazol-3-yl)phenyl)amino)-N-methylpyridazine-3-carboxamide] | C (C: ≤20% TYK2 degradation) | – |
| CNC(=O)c1nnc(NC(=O)CNC(=O)CCCNC(=O)C[C@H](NC(=O)[C@@H]2C[C@@H](O)CN2C(=O)[C@@H](NC(=O)C2(F)CC2)C(C)(C)C)c2ccc(-c3scnc3C)cc2)cc1Nc1cccc(-c2ncn(C)n2)c1OC [CPD-088, 6-(2-(4-((S)-3-((2S,4R)-1-((S)-2-(1-Fluorocyclopropane-1-carboxamido)-3,3-dimethylbutanoyl)-4-hydroxypyrrolidine-2-carboxamido)-3-(4-(4-methylthiazol-5-yl)phenyl)propanamido)butanamido)acetamido)-4-((2-methoxy-3-(1-methyl-1H-1,2,4-triazol-3-yl)phenyl)amino)-N-methylpyridazine-3-carboxamide] | C (C: ≤20% TYK2 degradation) | – |
| CNC(=O)c1nnc(NC(=O)CNC(=O)CCCCNC(=O)C[C@H](NC(=O)[C@@H]2C[C@@H](O)CN2C(=O)[C@@H](NC(=O)C2(F)CC2)C(C)(C)C)c2ccc(-c3scnc3C)cc2)cc1Nc1cccc(-c2ncn(C)n2)c1OC [CPD-089, 6-(2-(5-((S)-3-((2S,4R)-1-((S)-2-(1-Fluorocyclopropane-1-carboxamido)-3,3-dimethylbutanoyl)-4-hydroxypyrrolidine-2-carboxamido)-3-(4-(4-methylthiazol-5-yl)phenyl)propanamido)pentanamido)acetamido)-4-((2-methoxy-3-(1-methyl-1H-1,2,4-triazol-3-yl)phenyl)amino)-N-methylpyridazine-3-carboxamide] | C (C: ≤20% TYK2 degradation) | C (C: ≤20% TYK2 degradation) |
| CNC(=O)c1nnc(NC(=O)CNC(=O)CCCCCNC(=O)C[C@H](NC(=O)[C@@H]2C[C@@H](O)CN2C(=O)[C@@H](NC(=O)C2(F)CC2)C(C)(C)C)c2ccc(-c3scnc3C)cc2)cc1Nc1cccc(-c2ncn(C)n2)c1OC [CPD-090, 6-(2-(6-((S)-3-((2S,4R)-1-((S)-2-(1-Fluorocyclopropane-1-carboxamido)-3,3-dimethylbutanoyl)-4-hydroxypyrrolidine-2-carboxamido)-3-(4-(4-methylthiazol-5-yl)phenyl)propanamido)hexanamido)acetamido)-4-((2-methoxy-3-(1-methyl-1H-1,2,4-triazol-3-yl)phenyl)amino)-N-methylpyridazine-3-carboxamide] | C (C: ≤20% TYK2 degradation) | C (C: ≤20% TYK2 degradation) |
| CNC(=O)c1nnc(NC(=O)CNC(=O)CCCCCCNC(=O)C[C@H](NC(=O)[C@@H]2C[C@@H](O)CN2C(=O)[C@@H](NC(=O)C2(F)CC2)C(C)(C)C)c2ccc(-c3scnc3C)cc2)cc1Nc1cccc(-c2ncn(C)n2)c1OC [CPD-091, 6-(2-(7-((S)-3-((2S,4R)-1-((S)-2-(1-Fluorocyclopropane-1-carboxamido)-3,3-dimethylbutanoyl)-4-hydroxypyrrolidine-2-carboxamido)-3-(4-(4-methylthiazol-5-yl)phenyl)propanamido)heptanamido)acetamido)-4-((2-methoxy-3-(1-methyl-1H-1,2,4-triazol-3-yl)phenyl)amino)-N-methylpyridazine-3-carboxamide] | C (C: ≤20% TYK2 degradation) | C (C: ≤20% TYK2 degradation) |
| CNC(=O)c1nnc(NC(=O)CNC(=O)CCCCCCCNC(=O)C[C@H](NC(=O)[C@@H]2C[C@@H](O)CN2C(=O)[C@@H](NC(=O)C2(F)CC2)C(C)(C)C)c2ccc(-c3scnc3C)cc2)cc1Nc1cccc(-c2ncn(C)n2)c1OC [CPD-092, 6-(2-(8-((S)-3-((2S,4R)-1-((S)-2-(1-Fluorocyclopropane-1-carboxamido)-3,3-dimethylbutanoyl)-4-hydroxypyrrolidine-2-carboxamido)-3-(4-(4-methylthiazol-5-yl)phenyl)propanamido)octanamido)acetamido)-4-((2-methoxy-3-(1-methyl-1H-1,2,4-triazol-3-yl)phenyl)amino)-N-methylpyridazine-3-carboxamide] | C (C: ≤20% TYK2 degradation) | C (C: ≤20% TYK2 degradation) |
| CNC(=O)c1nnc(NC(=O)CNC(=O)CCCCCCCCNC(=O)C[C@H](NC(=O)[C@@H]2C[C@@H](O)CN2C(=O)[C@@H](NC(=O)C2(F)CC2)C(C)(C)C)c2ccc(-c3scnc3C)cc2)cc1Nc1cccc(-c2ncn(C)n2)c1OC [CPD-093, 6-(2-(9-((S)-3-((2S,4R)-1-((S)-2-(1-Fluorocyclopropane-1-carboxamido)-3,3-dimethylbutanoyl)-4-hydroxypyrrolidine-2-carboxamido)-3-(4-(4-methylthiazol-5-yl)phenyl)propanamido)nonanamido)acetamido)-4-((2-methoxy-3-(1-methyl-1H-1,2,4-triazol-3-yl)phenyl)amino)-N-methylpyridazine-3-carboxamide] | C (C: ≤20% TYK2 degradation) | C (C: ≤20% TYK2 degradation) |
| CNC(=O)c1nnc(NC(=O)CNC(=O)CCCCCCCCCNC(=O)C[C@H](NC(=O)[C@@H]2C[C@@H](O)CN2C(=O)[C@@H](NC(=O)C2(F)CC2)C(C)(C)C)c2ccc(-c3scnc3C)cc2)cc1Nc1cccc(-c2ncn(C)n2)c1OC [CPD-094, 6-(2-(10-((S)-3-((2S,4R)-1-((S)-2-(1-Fluorocyclopropane-1-carboxamido)-3,3-dimethylbutanoyl)-4-hydroxypyrrolidine-2-carboxamido)-3-(4-(4-methylthiazol-5-yl)phenyl)propanamido)decanamido)acetamido)-4-((2-methoxy-3-(1-methyl-1H-1,2,4-triazol-3-yl)phenyl)amino)-N-methylpyridazine-3-carboxamide] | B (B: <60% TYK2 degradation, and >20% TYK2 degradation) | B (B: <60% TYK2 degradation, and >20% TYK2 degradation) |
